The term IC50 denotes the concentration that inhibits the measured activity by half.

human TRPA1, sequence (O75762 whole entry, the tested form may be a part): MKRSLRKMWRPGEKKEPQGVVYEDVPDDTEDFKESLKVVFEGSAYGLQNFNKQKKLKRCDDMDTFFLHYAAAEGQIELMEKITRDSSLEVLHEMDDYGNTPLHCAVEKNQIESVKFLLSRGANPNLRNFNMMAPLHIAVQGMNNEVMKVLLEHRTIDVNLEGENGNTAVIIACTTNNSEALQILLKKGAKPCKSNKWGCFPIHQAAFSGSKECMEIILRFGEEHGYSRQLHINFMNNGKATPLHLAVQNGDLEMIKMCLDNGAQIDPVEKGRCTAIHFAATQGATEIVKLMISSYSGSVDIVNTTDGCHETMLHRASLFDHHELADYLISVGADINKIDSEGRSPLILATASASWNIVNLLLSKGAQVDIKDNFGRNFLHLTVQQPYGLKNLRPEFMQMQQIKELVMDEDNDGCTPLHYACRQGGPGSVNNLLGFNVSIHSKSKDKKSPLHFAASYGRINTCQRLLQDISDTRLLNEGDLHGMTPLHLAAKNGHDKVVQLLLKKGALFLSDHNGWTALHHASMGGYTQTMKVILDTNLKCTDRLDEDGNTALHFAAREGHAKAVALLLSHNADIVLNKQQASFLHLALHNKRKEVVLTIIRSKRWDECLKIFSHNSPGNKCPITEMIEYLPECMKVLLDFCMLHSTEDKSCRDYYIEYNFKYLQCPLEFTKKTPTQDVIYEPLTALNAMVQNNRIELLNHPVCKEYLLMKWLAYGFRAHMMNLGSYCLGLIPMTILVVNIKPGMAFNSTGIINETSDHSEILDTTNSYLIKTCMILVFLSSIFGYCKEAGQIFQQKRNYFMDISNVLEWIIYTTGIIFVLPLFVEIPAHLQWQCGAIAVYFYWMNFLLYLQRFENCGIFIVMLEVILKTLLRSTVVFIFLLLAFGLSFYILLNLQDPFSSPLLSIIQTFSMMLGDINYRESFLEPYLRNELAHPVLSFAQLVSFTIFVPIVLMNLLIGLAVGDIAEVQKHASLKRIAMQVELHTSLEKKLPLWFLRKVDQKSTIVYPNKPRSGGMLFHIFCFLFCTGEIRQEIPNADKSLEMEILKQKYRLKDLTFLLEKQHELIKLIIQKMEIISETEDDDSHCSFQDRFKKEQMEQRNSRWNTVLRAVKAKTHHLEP

The experiment addresses human TRPA1 (Homo sapiens (Human), UniProt O75762). Briefly: In vitro inhibition of human TRPA1, whole cell patch configuration. It is filed as cell-based. The conditions noted are these: current activation 10 μM AITC, tested concentrations 320 pM to 3.2 μM, read-out: hTRPA1 IC50. In a few lines:
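Whole-cell patch clamp, bath 150 mM NaCl, 10 mM HEPES, 1 mM EGTA, 3 mM MgCl2, pH 7.4 (sometimes 2 mM CaCl2, 1 mM MgCl2). Currents recorded continuously at −60 mV or by 400 ms ramps from −40 mV holding every 4 s; inward/outward currents taken at −80/80 mV, with controlled-temperature focal perfusion.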
In the case of `Cc1cc(Cn2c(=O)c3c(ncn3CC(=O)Nc3cccc(N4CC5C(C4)C5(F)F)n3)n(C)c2=O)no1` (centres unmarked) [Compound 213, N-(6-(6,6-difluoro-3-azabicyclo[3.1.0]hexan-3-yl)pyridin-2-yl)-2-(3-methyl-1-((5-methylisoxazol-3-yl)methyl)-2,6-dioxo-2,3-dihydro-1H-purin-7(6H)-yl)acetamide], the half-inhibitory concentration (IC50) turned out to be 141 nM.
In the case of `Cc1cc(Cn2c(=O)c3c(ncn3CC(=O)Nc3cccc(N4CCN(CC(F)(F)F)CC4)n3)n(C)c2=O)no1` [Compound 214, 2-(3-methyl-1-((5-methylisoxazol-3-yl)methyl)-2,6-dioxo-2,3-dihydro-1H-purin-7(6H)-yl)-N-(6-(4-(2,2,2-trifluoroethyl)piperazin-1-yl)pyridin-2-yl)acetamide], the 50% inhibitory concentration (IC50) was determined as 92 nM.
To `Cc1cc(Cn2c(=O)c3c(ncn3CC(=O)Nc3cccc(-c4ccc(C(F)(F)F)nc4)n3)n(C)c2=O)no1` [Compound 215, 2-(3-methyl-1-((5-methylisoxazol-3-yl)methyl)-2,6-dioxo-2,3-dihydro-1H-purin-7(6H)-yl)-N-(6′-(trifluoromethyl)-2,3′-bipyridin-6-yl)acetamide] belongs 25 nM.
The same measure for `CC(=O)Cn1c(=O)c2c(ncn2CC(=O)Nc2csc(-c3cnc(C(F)(F)F)c(C)c3)n2)n(C)c1=O` [Compound 216, 2-(3-methyl-2,6-dioxo-1-(2-oxopropyl)-2,3-dihydro-1H-purin-7(6H)-yl)-N-(2-(5-methyl-6-(trifluoromethyl)pyridin-3-yl)thiazol-4-yl)acetamide]: 16 nM; for `Cc1cc(Cn2c(=O)c3c(ncn3CC(=O)Nc3csc(-c4cnc(C(F)(F)F)c(C)c4)n3)n(C)c2=O)no1` [Compound 217, 2-(3-methyl-1-((5-methylisoxazol-3-yl)methyl)-2,6-dioxo-2,3-dihydro-1H-purin-7(6H)-yl)-N-(2-(5-methyl-6-(trifluoromethyl)pyridin-3-yl)thiazol-4-yl)acetamide]: 3 nM.
To `Cc1cc(Cn2c(=O)c3c(ncn3CC(=O)Nc3cccc(N4CCC(C(C)(C)F)CC4)n3)n(C)c2=O)no1` [Compound 219, N-(6-(4-(2-fluoropropan-2-yl)piperidin-1-yl)pyridin-2-yl)-2-(3-methyl-1-((5-methylisoxazol-3-yl)methyl)-2,6-dioxo-2,3-dihydro-1H-purin-7(6H)-yl)acetamide] belongs 23 nM; to `Cc1cc(Cn2c(=O)c3c(ncn3CC(=O)Nc3ccc(N4CCC(C(C)(C)F)CC4)cn3)n(C)c2=O)no1` [Compound 220, N-(5-(4-(2-fluoropropan-2-yl)piperidin-1-yl)pyridin-2-yl)-2-(3-methyl-1-((5-methylisoxazol-3-yl)methyl)-2,6-dioxo-2,3-dihydro-1H-purin-7(6H)-yl)acetamide], 72 nM.
Regarding `Cc1cc(Cn2c(=O)c3c(ncn3CC(=O)Nc3cccc(-c4cnc(C(F)(F)F)c(C)c4)n3)n(C)c2=O)no1` [Compound 221, 2-(3-methyl-1-((5-methylisoxazol-3-yl)methyl)-2,6-dioxo-2,3-dihydro-1H-purin-7(6H)-yl)-N-(5′-methyl-6′-(trifluoromethyl)-[2,3′-bipyridin]-6-yl)acetamide], the concentration for half-maximal inhibition (IC50) was determined as 5 nM.
The same measure for `Cc1noc(Cn2c(=O)c3c(ncn3CC(=O)Nc3cccc(-c4cnc(C(F)(F)F)c(C)c4)n3)n(C)c2=O)n1` [Compound 222, 2-(3-methyl-1-((3-methyl-1,2,4-oxadiazol-5-yl)methyl)-2,6-dioxo-2,3-dihydro-1H-purin-7(6H)-yl)-N-(5′-methyl-6′-(trifluoromethyl)-[2,3′-bipyridin]-6-yl)acetamide]: 5 nM; for `Cc1nc(Cn2c(=O)c3c(ncn3CC(=O)Nc3cccc(-c4cnc(C(F)(F)F)c(C)c4)n3)n(C)c2=O)no1` [Compound 223, 2-(3-methyl-1-((5-methyl-1,2,4-oxadiazol-3-yl)methyl)-2,6-dioxo-2,3-dihydro-1H-purin-7(6H)-yl)-N-(5′-methyl-6′-(trifluoromethyl)-[2,3′-bipyridin]-6-yl)acetamide]: 25 nM.
For the compound `Cc1cc(-c2cccc(NC(=O)Cn3cnc4c3c(=O)n(Cc3ccon3)c(=O)n4C)n2)cnc1C(F)(F)F` [Compound 224, 2-(1-(isoxazol-3-ylmethyl)-3-methyl-2,6-dioxo-2,3-dihydro-1H-purin-7(6H)-yl)-N-(5′-methyl-6′-(trifluoromethyl)-[2,3′-bipyridin]-6-yl)acetamide], the IC50 is 19 nM.
To `Cc1cc(Cn2c(=O)c3c(ncn3CC(=O)Nc3cccc(-c4cnc(C(F)(F)F)c(C)c4)n3)n(C)c2=O)on1` [Compound 225, 2-(3-methyl-1-((3-methylisoxazol-5-yl)methyl)-2,6-dioxo-2,3-dihydro-1H-purin-7(6H)-yl)-N-(5′-methyl-6′-(trifluoromethyl)-[2,3′-bipyridin]-6-yl)acetamide] belongs 49 nM.
To `CCC(=O)Cn1c(=O)c2c(ncn2CC(=O)Nc2cccc(-c3cnc(C(F)(F)F)c(C)c3)n2)n(C)c1=O` [Compound 226, 2-(3-methyl-2,6-dioxo-1-(2-oxobutyl)-2,3-dihydro-1H-purin-7(6H)-yl)-N-(5′-methyl-6′-(trifluoromethyl)-[2,3′-bipyridin]-6-yl)acetamide] belongs 8 nM; to `CC(=O)Cn1c(=O)c2c(ncn2CC(=O)Nc2cccc(-c3cnc(C(F)(F)F)c(C)c3)n2)n(C)c1=O` [Compound 227, 2-(3-methyl-2,6-dioxo-1-(2-oxopropyl)-2,3-dihydro-1H-purin-7(6H)-yl)-N-(5′-methyl-6′-(trifluoromethyl)-[2,3′-bipyridin]-6-yl)acetamide], 22 nM.
The same measure for `Cc1cc(Cn2c(=O)c3c(ncn3CC(=O)Nc3cccc(-c4cnc(C)c(F)c4)n3)n(C)c2=O)no1` [Compound 228, N-(5′-fluoro-6′-methyl-[2,3′-bipyridin]-6-yl)-2-(3-methyl-1-((5-methylisoxazol-3-yl)methyl)-2,6-dioxo-2,3-dihydro-1H-purin-7(6H)-yl)acetamide]: 17 nM.
Turning to `Cc1cc(Cn2c(=O)c3c(ncn3CC(=O)Nc3cncc(-c4cnc(C(F)(F)F)c(C)c4)n3)n(C)c2=O)no1` [Compound 229, 2-(3-methyl-1-((5-methylisoxazol-3-yl)methyl)-2,6-dioxo-2,3-dihydro-1H-purin-7(6H)-yl)-N-(6-(5-methyl-6-(trifluoromethyl)pyridin-3-yl)pyrazin-2-yl)acetamide], the IC50 was 9 nM.
Regarding `Cc1noc(Cn2c(=O)c3c(ncn3CC(=O)Nc3cncc(-c4cnc(C(F)(F)F)c(C)c4)n3)n(C)c2=O)n1` [Compound 230, 2-(3-methyl-1-((3-methyl-1,2,4-oxadiazol-5-yl)methyl)-2,6-dioxo-2,3-dihydro-1H-purin-7(6H)-yl)-N-(6-(5-methyl-6-(trifluoromethyl)pyridin-3-yl)pyrazin-2-yl)acetamide], the IC50 was 14 nM.
Take `Cc1noc(Cn2c(=O)c3c(ncn3CC(=O)Nc3cccc(-c4cnc(C)c(F)c4)n3)n(C)c2=O)n1` [Compound 231, N-(5′-fluoro-6′-methyl-[2,3′-bipyridin]-6-yl)-2-(3-methyl-1-((3-methyl-1,2,4-oxadiazol-5-yl)methyl)-2,6-dioxo-2,3-dihydro-1H-purin-7(6H)-yl)acetamide]: the IC50 was determined as 16 nM.
Turning to `CC(=O)Cn1c(=O)c2c(ncn2CC(=O)Nc2cncc(-c3cnc(C(F)(F)F)c(C)c3)n2)n(C)c1=O` [Compound 232, 2-(3-methyl-2,6-dioxo-1-(2-oxopropyl)-2,3-dihydro-1H-purin-7(6H)-yl)-N-(6-(5-methyl-6-(trifluoromethyl)pyridin-3-yl)pyrazin-2-yl)acetamide], the IC50 turned out to be 56 nM.
The same measure for `CCC(=O)Cn1c(=O)c2c(ncn2CC(=O)Nc2cncc(-c3cnc(C(F)(F)F)c(C)c3)n2)n(C)c1=O` [Compound 233, 2-(3-methyl-2,6-dioxo-1-(2-oxobutyl)-2,3-dihydro-1H-purin-7(6H)-yl)-N-(6-(5-methyl-6-(trifluoromethyl)pyridin-3-yl)pyrazin-2-yl)acetamide]: 10 nM.
Take `CC(=O)Cn1c(=O)c2c(ncn2CC(=O)Nc2cccc(-c3cnc(C)c(C(F)(F)F)c3)n2)n(C)c1=O` [Compound 234, 2-(3-methyl-2,6-dioxo-1-(2-oxopropyl)2,3-dihydro-1H-purin-7(6H)-yl)-N-(6′-methyl-5′-(trifluoromethyl)-[2,3′-bipyridin]-6-yl)acetamide]: the IC50 is 4 nM.
Take `CCC(=O)Cn1c(=O)c2c(ncn2CC(=O)Nc2cccc(-c3cnc(C)c(C(F)(F)F)c3)n2)n(C)c1=O` [Compound 235, 2-(3-methyl-2,6-dioxo-1-(2-oxobutyl)-2,3-dihydro-1H-purin-7(6H)-yl)-N-(6′-methyl-5′-(trifluoromethyl)-[2,3′-bipyridin]-6-yl)acetamide]: the IC50 amounted to 2 nM.
Consider `Cc1ncc(-c2cccc(NC(=O)Cn3cnc4c3c(=O)n(CCCO)c(=O)n4C)n2)cc1C(F)(F)F` [Compound 236, 2-(1-(3-hydroxypropyl)-3-methyl-2,6-dioxo-2,3-dihydro-1H-purin-7(6H)-yl)-N-(6′-methyl-5′-(trifluoromethyl)-[2,3′-bipyridin]-6-yl)acetamide], for which the IC50 turned out to be 711 nM.
For `Cc1ncc(-c2cccc(NC(=O)Cn3cnc4c3c(=O)n(CCO)c(=O)n4C)n2)cc1C(F)(F)F` [Compound 237], the IC50 is 236 nM.
To `Cc1cc(Cn2c(=O)c3c(ncn3CC(=O)Nc3cccc(-c4cnc(C)c(C(F)(F)F)c4)n3)n(C)c2=O)no1` [Compound 238, 2-(3-methyl-1-((5-methylisoxazol-3-yl)methyl)-2,6-dioxo-2,3-dihydro-1H-purin-7(6H)-yl)-N-(6′-methyl-5′-(trifluoromethyl)-[2,3′-bipyridin]-6-yl)acetamide] belongs 4 nM; to `Cc1ncc(-c2cccc(NC(=O)Cn3cnc4c3c(=O)n(Cc3ccon3)c(=O)n4C)n2)cc1C(F)(F)F` [Compound 239, 2-(1-(isoxazol-3-ylmethyl)-3-methyl-2,6-dioxo-2,3-dihydro-1H-purin-7(6H)-yl)-N-(6′-methyl-5′-(trifluoromethyl)-[2,3′-bipyridin]-6-yl)acetamide], 3 nM.

The record behind these values is US10221177B2 (HYDRA BIOSCIENCES, INC., priority 2014, dated 2019).
